Laboratory results published in paper PMC11911254 (Pharmacological Reports, 2025).

Experiments:
[1] = cited from earlier work
[2] = design: method as in PMID 7288602; settings: rats; single dose of 15 mg/kg; cited from earlier work
[3] = Concentration of paracetamol and its metabolites in plasma, CSF and brain cortex by LC-MS/MS; settings: for Concentration in CSF / Concentration in brain / Concentration in plasma: E19 rats; for Concentration in CSF / Concentration in brain / Concentration in plasma / concentration at 30 min: median (IQR); for concentration at 30 min: both, Sprague Dawley, rat, intraperitoneal, P4 rats
Procedure: Drug injection protocol is illustrated in Fig. 1.
Male and female postnatal P4 pups and 7–8 week-old non-pregnant females were used. […] In combination therapy experiments, this dose was accompanied by one of the 7 other drugs (Table 1). For all experiments, animals were terminally anesthetized 30 min after the drug injection using inhaled isoflurane (IsoFlo 100% w/w, Abbott Laboratories), and blood, CSF, and brain samples were collected. Blood was collected directly from the right cardiac ventricle, CSF from the cisterna magna, and cortical brain samples from the frontal/parietal lobes dorsal to the lateral ventricles as described previously.
Pregnant E19 dams were anesthetized with ip urethane injection (25% w/v urethane, Sigma, 1 ml/100 g body weight) and placed on a 39 °C heating pad in the supine position. An endotracheal catheter was inserted to maintain a clear airway. Catheters were inserted into the femoral vein and artery for iv drug administration and arterial blood sampling respectively. The cannula was flushed with 0.5 ml of heparinized saline (Hospira Inc, 5,000 units/ml) after drug administration and following each arterial blood sample. Following drug administration to the dams, fetuses were exteriorized and serially collected starting at 30 min post-maternal injection. […] At collection, the viability of each fetus was assessed (presence of a heartbeat, the colour of the umbilical vessels) and blood, CSF, and brain samples were taken along with a time-matched maternal blood sample from the femoral artery. At the end of the experiment, a final maternal blood sample was taken directly from the left cardiac ventricle, and CSF and brain samples were collected.
This method has been described previously for valproate, lamotrigine, and olanzapine and was applied in the present study. Simultaneous quantification was performed for all compounds in plasma, brain, and CSF samples following the addition of respective stable isotope-labeled internal standards.
Linear response range was determined in untreated control rat plasma for each compound at 0.1, 1, 10, 50, 100, 200, 400, and 800 µg/ml.

[4] = maternal iv paracetamol 15 mg/kg + cimetidine 11 mg/kg (PARA+CIM, n=10)
[5] = maternal iv paracetamol 15 mg/kg + digoxin 0.03 mg/kg (PARA+DIG, n=9)
[6] = maternal iv paracetamol 15 mg/kg + lamotrigine 6 mg/kg (PARA+LTG, n=10)
[7] = maternal iv paracetamol 15 mg/kg + olanzapine 0.15 mg/kg (PARA+OLZ, n=10), all values if <3 detected
[8] = maternal iv paracetamol 15 mg/kg + valproate 30 mg/kg (PARA+VPA, n=10), all values if <3 detected
[9] = maternal iv paracetamol 15 mg/kg monotherapy (PARA, n=10)

Concentration in CSF [3, 4]: 7.2 (1.7) µg/ml
Concentration in brain [3, 4]: 10.2 (5.7) µg/ml
Concentration in plasma [3, 4]: 7.6 (2.5) µg/ml
Concentration in CSF [3, 5]: 6.5 (2.2) µg/ml
Concentration in brain [3, 5]: 6.6 (3.0) µg/ml
Concentration in plasma [3, 5]: 5.8 (2.2) µg/ml
Concentration in CSF [3, 6]: 6.3 (3.4) µg/ml
Concentration in brain [3, 6]: 8 (2.6) µg/ml
Concentration in plasma [3, 6]: 6.2 (3.7) µg/ml
Concentration in plasma ([3]; maternal iv paracetamol 15 mg/kg + olanzapine 0.15 mg/kg (PARA+OLZ, n=10)): 4.1 (3.7) µg/ml
Concentration in CSF [3, 7]: 4.7 (4.0) µg/ml
Concentration in brain [3, 7]: 8.7 (3.9) µg/ml
Concentration in plasma ([3]; maternal iv paracetamol 15 mg/kg + olanzapine 0.15 mg/kg (PARA+OLZ, n=10), listed as paracetamol): 4.1 µg/mL
Concentration in CSF ([3]; maternal iv paracetamol 15 mg/kg + valproate 30 mg/kg (PARA+VPA, n=10)): 5.9 (2.1) µg/ml
Concentration in brain [3, 8]: 6.9 (2.1) µg/ml
Concentration in plasma [3, 8]: 6.0 (2.5) µg/ml
Concentration in CSF [3, 9]: 8.0 (3.2) µg/ml
Concentration in brain [3, 9]: 9.3 (5.0) µg/ml
Concentration in plasma [3, 9]: 7.5 (2.9) µg/ml
Concentration in plasma ([3]; maternal iv paracetamol 15 mg/kg monotherapy (PARA, n=10), listed as paracetamol): 7.5 µg/mL
change in plasma concentration following combination therapy ([3]; adults, any of the drugs investigated, Kruskal-Wallis test): no significant changes
concentration at 30 min ([3]; CSF, 15 mg/kg, Concentration in CSF, 30 min after ip paracetamol 15 mg/kg monotherapy (PARA, n=4)): 7000 ng/mL
concentration at 30 min ([3]; CSF, Concentration in CSF, 30 min after ip paracetamol 15 mg/kg + cimetidine 11 mg/kg (PARA+CIM, n=4)): 6200 ng/mL
concentration at 30 min ([3]; CSF, Concentration in CSF, 30 min after ip paracetamol 15 mg/kg + digoxin 0.03 mg/kg (PARA+DIG, n=4)): 6300 ng/mL
concentration at 30 min ([3]; CSF, Concentration in CSF, 30 min after ip paracetamol 15 mg/kg + fluvoxamine 1.5 mg/kg (PARA+FLX, n=4)): 9400 ng/mL
concentration at 30 min ([3]; CSF, Concentration in CSF, 30 min after ip paracetamol 15 mg/kg + lamotrigine 6 mg/kg (PARA+LTG, n=5)): 7200 ng/mL
concentration at 30 min ([3]; CSF, Concentration in CSF, 30 min after ip paracetamol 15 mg/kg + lithium 3.2 mg/kg (PARA+Li, n=4)): 4700 ng/mL
concentration at 30 min ([3]; CSF, Concentration in CSF, 30 min after ip paracetamol 15 mg/kg + olanzapine 0.15 mg/kg (PARA+OLZ, n=4)): 5300 ng/mL
concentration at 30 min ([3]; CSF, Concentration in CSF, 30 min after ip paracetamol 15 mg/kg + valproate 30 mg/kg (PARA+VPA, n=4)): 6400 ng/mL
concentration at 30 min ([3]; brain cortex, 15 mg/kg, Concentration in brain, 30 min after ip paracetamol 15 mg/kg monotherapy (PARA, n=4)): 8900 ng/mL
Structure (SMILES): CC(=O)Nc1ccc(O)cc1 [Paracetamol, reference compound]
fraction metabolized by glucuronidation via UGT enzymes ([1]; adult humans, liver): 55–60%
fraction metabolized by sulfation via SULT enzymes ([1]; adult humans, liver): 20–30%
fraction excreted unchanged in urine ([1]; adult humans): around 4%
fraction turned into NAPQI via cytochrome P450 enzymes ([1]; adult humans): Up to 10%
proportion of paracetamol's metabolism by the glutathione metabolic pathway [1]: < 10%
half-life [2]: around 16 min
